# Reference: patent US20140121236A1, “Compositions and Methods for Treating Myotonic Dystrophy Type 1” (UNIVERSITY OF SOUTHERN CALIFORNIA, priority 2012, published 2014)
# How the values were obtained:
# HSALR mice = assay: Myotonic runs recorded in muscle of treated HSALR mice; type: in vivo; conditions: gastrocnemius muscle, 40 mg/kg IP once a day for 14 days, p<0.05 vs vehicle
# From the text: (§1) For all animals the recording electrode was inserted into the test muscle 20 times. The number of myotonic runs ≧1 second in the gastrocnemius muscle of individual HSA^LR mice treated with either the saline control or RCN-001 are shown.
# (§2) Importantly, RCN-001 reduces the number of myotonic runs of ≧1 second (p<0.05) (FIG. 5), total time of myotonic runs ≧1 sec (4.04 s±2.9 vehicle; 0.99 s±1.4 RCN-001; p<0.05) and length of the longest run (1.96 s±0.97 vehicle; 0.73 s±0.71 RCN-001; p<0.05) in the gastrocnemius muscle of HSA^LR mice. […] Methods are detailed in the legend of FIG. 5.
# Treatment in HSALR mice. The HSALR transgenic mice expressing (CTG)250 in the 3′UTR of the human skeletal actin mRNA as described in Mankodi et al, 2000 were utilized for this study (a generous gift from Dr. Charles Thornton). Treatment in mice was done by intraperitoneal injection using 40 mg/kg once a day for 7 or 14 days of RCN-001 or vehicle alone. Total RNA was isolated from skeletal muscle of treated HSALR mice using Trizole (Invitrogen, USA) following the manufacture's protocol. cDNA synthesis and PCR was performed as described in Dansithong et al, 2008. PCR amplification was carried out with the following primers—
# Clcn1 = assay: Anti-Clcn1 staining of gastrocnemius muscle sections of HSALR mice; type: in vivo; conditions: 14 days treatment
# From the text: as §1, §2
# (§3) CUG-RNA foci were detected by performing FISH on untreated DM1 myoblasts and DM1 myoblasts following treatment. For FISH analysis, DM1 myoblasts were plated on a 24-well clear bottom polystyrene plate with circular glass coverslips followed by treatment. Prior to FISH analysis, cells were fixed using 4% paraformaldehyde in 1×PBS for 20 min at room temperature. FISH analysis was performed using a Cy3 conjugated (CAG)10 oligonucleotide probe (Integrated DNA Technologies, Inc.) as described by Taneja et al, 1995 and Dansithong et al, 2005. CUG-RNA foci were observed as a red signal using fluorescence microscopy. […] Endogenous SHARP was detected using SHARP polyclonal antibodies from Bethyl at a dilution of 1:1000. […] Chloride channel 1 (Clcn1 a.k.a. CIC-1) was detected using CIC-1 polyclonal antibodies from Santa Cruz. […]
# DM1 myoblasts [1] = assay: Toxicity by shape and size of the nuclei of DM1 myoblasts; type: cell-based, human; conditions: Table 1, 10 μM, 4 days
# [2] = tested on: CUG-RNA foci in DM1 myoblasts; assay: FISH analysis of nuclear CUG-RNA foci in DM1 myoblasts; type: cell-based, human; conditions: 4 days
# Protocol: (§4) DM1 myoblasts were then treated with 10 μM of either RCN-001 or the vehicle (DMSO) for 4 days and then examined by FISH using a Cy3 (CAG)10 probe.
# Normal myoblasts were purchased from Lonza, Inc. DM1 myoblasts were a gift from Dr. Charles Thornton. Normal and DM1 myoblasts were maintained in SkGM Medium (Lonza, Inc.) containing 10% Fetal Bovine Serum and 1% Penicillin-Streptomycin, 5% CO2 at 37° C. Human Embryonic Kidney 293 Cells (293HEK) were maintained in Dulbecco's Modification of Eagle's Medium (DMEM) from Cellgro supplemented with 10% Fetal Bovine Serum and 1% Penicillin-Streptomycin, 5% CO2 at 37° C.
# (§5) CUG-RNA foci were detected by performing FISH on untreated DM1 myoblasts and DM1 myoblasts following treatment. For FISH analysis, DM1 myoblasts were plated on a 24-well clear bottom polystyrene plate with circular glass coverslips followed by treatment. Prior to FISH analysis, cells were fixed using 4% paraformaldehyde in 1×PBS for 20 min at room temperature. FISH analysis was performed using a Cy3 conjugated (CAG)10 oligonucleotide probe (Integrated DNA Technologies, Inc.) as described by Taneja et al, 1995 and Dansithong et al, 2005. CUG-RNA foci were observed as a red signal using fluorescence microscopy. Immunofluorescence was performed as described by Dansithong et al, 2008. Endogenous SHARP was detected using SHARP polyclonal antibodies from Bethyl at a dilution of 1:1000. The secondary antibodies conjugated with FITC (Invitrogen) were used at a 1:2000 dilution. Chloride channel 1 (Clcn1 a.k.a. CIC-1) was detected using CIC-1 polyclonal antibodies from Santa Cruz. The secondary antibodies conjugated with Alexa Flour 488 (Invitrogen) were used at a 1:2000 dilution. FISH analysis in mouse muscle section was carried out as described in Mancodi et al, 2000 (9).
# CUG foci in HSALR mice = assay: CUG foci (FISH) in muscle of treated HSALR mice; type: in vivo; conditions: 40 mg/kg i.p. each day for 7 days
# Protocol: Red: CUG foci, detected with a (CAG)10Cy3 probe Blue: DAPI stain of nuclei.
# (§6) Furthermore, CUG foci, abnormal RNA splicing, myotonia and reduced Clcn1 protein levels are reversed in HSA^LR mice treated with RCN-001: Age and gender matched HSA^LR mice were treated with either vehicle or 40/mgs/kg of RCN-001 injected i.p. each day for 7 days. After treatment CUG foci were examined and RNA isolated from skeletal muscle was subjected to RT-PCR analysis to examine the efficacy of RCN-001 in correcting the splice defects of Clcn1, lbd3 and Serca-1 RNAs, which are abnormally spliced in DM1 (20).
# as §3, with “FISH analysis was performed using a Cy3 conjugated (CAG)10 oligonucleotide probe (Integrated DNA Technologies, Inc.) as described by Taneja et al, 1995 and Dansithong et al, 2005.” left out
# wild-type and HSALR mice = assay: Off-target splicing and RNA steady-state levels in mice; type: in vivo
# From the text: (§7) Results for wild-type and HSA^LR mice are not shown.
# DM1 myoblasts [3] = assay: Viability of DM1 myoblasts by counting surviving cells; type: cell-based, human; conditions: Table 1, 10 μM, 4 days, surviving cells vs vehicle control
# SHARP [4] = assay: SHARP immunofluorescence in DM1 myoblasts; type: cell-based, human; conditions: RCN-001 treatment for 4 days (not shown)
# Protocol: as §4, §5
# SHARP [5] = assay: Nuclear SHARP levels in treated HSALR mice; type: in vivo; conditions: 40 mg/kg i.p. each day for 7 days (not shown)
# Protocol: as §6, §3
# normal and DM1 myoblasts = assay: Off-target splicing and RNA steady-state levels (semi-quantitative RT-PCR) in myoblasts; type: cell-based, human
# From the text: Semi-quantitative RT-PCR was done as previously described (7,17, 23). Abbreviations: U: Untreated; V: vehicle treated; 16: treated with RCN-001.
# as §7
# [6] = tested on: CUG-RNA foci in DM1 myoblasts; assay: FISH analysis of nuclear CUG-RNA foci in DM1 myoblasts; type: cell-based, human; conditions: 2 μM, 4 days (not shown)
structure (smiles),measurement,setting,value
CCCCCCc1cc2cc(-c3nnc(-c4cccc(OC)c4)o3)c(=O)oc2cc1O [RCN-001],number of myotonic runs of ≧1 second,HSALR mice,reduces
same,chloride channel (Clcn1) levels,Clcn1,re-establish normal chloride channel levels
same,Toxicity: Toxic,DM1 myoblasts [1],++++ (60% alterations in nuclei shape and size)
same,decrease in cells containing 3 or more foci,"[2]; 10 μM, vs vehicle (DMSO)",~5 fold
same,increase in cells containing no foci,"[2]; 10 μM, vs vehicle (DMSO)",~10 fold
same,# of Foci (percentage) 0-1: Percentage of cells with no or 1 nuclear foci,"[2]; Table 1, 10 μM, FISH",48 percentage
same,# of Foci (percentage) >2: Percentage of cells with 2 or greater nuclear foci,"[2]; Table 1, 10 μM, FISH",52 percentage
same,load of the CUG foci,CUG foci in HSALR mice,reduced
same,off target effects on steady-state levels of endogenous (CUG)6-25 repeat encoding RNAs,wild-type and HSALR mice; wild-type and HSALR mice (not shown),does not show significant off target effects
same,splice patterns of RNAs that are abnormally spliced in DM1,wild-type and HSALR mice; wild-type mice (not shown),does not alter splice patterns
same,splice patterns of RNAs that are normally spliced in DM1,wild-type and HSALR mice; wild-type or HSALR mice (not shown),does not alter splice patterns
same,Toxicity: Viable,DM1 myoblasts [3],++ (30-40% cell survival)
same,SHARP mislocalization / nuclear SHARP levels in DM1 myoblast,SHARP [4],significantly reversed SHARP mislocalization and re-established nuclear SHARP levels
same,nuclear SHARP levels,SHARP [5],allowed nuclear SHARP levels to be re-established
same,off target effects on steady-state levels of endogenous (CUG)6-25 repeat encoding RNAs,normal and DM1 myoblasts; normal and DM1 myoblasts (FIG. 6C),does not show significant off target effects
same,splice patterns of RNAs that are abnormally spliced in DM1,normal and DM1 myoblasts; normal myoblasts (FIG. 6B),does not alter splice patterns
same,splice patterns of RNAs that are normally spliced in DM1,normal and DM1 myoblasts; normal or DM1 myoblasts (FIG. 6A),does not alter splice patterns
same,decrease in cells containing 3 or more foci,[6],2 fold
same,increase in cells containing no foci,[6],5 fold
